Laboratory results from patent publication US8399452B2, “Dibenzo[b,f][1,4]oxazepin-11-yl-N-hydroxybenzamides as HDAC inhibitors” (Methylgene Inc., priority 2006, dated 2013).
Where two headings read alike, the source gives them in different places.

Target: histone deacetylase (HDAC Enzyme)
Test: Inhibition of Histone Deacetylase Enzymatic Activity (Boc-Lys(Ac)-AMC, Fluor-de-Lys developer)
Assay type: biochemical
Protocol: The following protocol is used to assay the compounds of the invention.
The mixture is pre-incubated for 5 minutes at room temperature. The reaction is started by bringing the temperature to 37° C. and adding 16 μl substrate. Total reaction volume is 50 μl.
In the Tables 8, 9 and 10, A≦[…]<B≦0.1 μM; 0.1 μM<C≦1 μM; and 1 μM<D≦10 μM.

[1] = Table 9, read-out: HDAC Inhibition (IC50 μM) HDAC Enzyme
[2] = Table 10, read-out: HDAC Inhibition (IC50 μM) HDAC Enzyme

SMILES	IC50 [1] [µM]	IC50 [2] [µM]	also measured
O=C(NO)c1cnc(N2C[C@@H]3C[C@H]2CN3c2cccc3nonc23)nc1 [2-((1S,4S)-5-(benzo[c][1,2,5]oxadiazol-4-yl)-2,5-diazabicyclo[2.2.1]heptan-2-yl)-N-hydroxypyrimidine-5-carboxamide]	< 0.05		
O=C(NO)c1cnc(N2C[C@@H]3C[C@H]2CN3c2ccc3nonc3c2)nc1 [2-((1S,4S)-5-(benzo[c][1,2,5]oxadiazol-5-yl)-2,5-diazabicyclo[2.2.1]heptan-2-yl)-N-hydroxypyrimidine-5-carboxamide]	< 0.05		
O=C(NO)c1cnc(N2C[C@@H]3C[C@H]2CN3c2ccc3nsnc3c2)nc1 [2-((1S,4S)-5-(benzo[c][1,2,5]thiadiazol-5-yl)-2,5-diazabicyclo[2.2.1]heptan-2-yl)-N-hydroxypyrimidine-5-carboxamide]	< 0.05		
O=C(NO)c1cnc(N2C[C@@H]3C[C@H]2CN3c2ccc3c(c2)OCO3)nc1 [2-((1S,4S)-5-(benzo[d][1,3]dioxol-5-yl)-2,5-diazabicyclo[2.2.1]heptan-2-yl)-N-hydroxypyrimidine-5-carboxamide]	< 0.05		
O=C(NO)c1cnc(N2C[C@@H]3C[C@H]2CN3C(c2ccccc2)c2ccccc2)nc1 [2-((1S,4S)-5-benzhydryl-2,5-diazabicyclo[2.2.1]heptan-2-yl)-N-hydroxypyrimidine-5-carboxamide]	< 0.05		
O=C(NO)c1cnc(N2C[C@@H]3C[C@H]2CN3Cc2ccccc2)nc1 [2-((1S,4S)-5-benzyl-2,5-diazabicyclo[2.2.1]heptan-2-yl)-N-hydroxypyrimidine-5-carboxamide]	0.1 to 1		
O=C(NO)c1cnc(NC(c2ccccc2)c2ccccc2)nc1 [2-(benzhydrylamino)-N-hydroxypyrimidine-5-carboxamide]		< 0.05	
O=C(NO)c1cnc(OC(c2ccc(F)cc2)c2ccc(F)cc2)nc1 [2-(bis(4-fluorophenyl)methoxy)-N-hydroxypyrimidine-5-carboxamide]		0.1 to 1	
O=C(NO)c1cnc(NC(c2ccc(F)cc2)c2ccc(F)cc2)nc1 [2-(bis(4-fluorophenyl)methylamino)-N-hydroxypyrimidine-5-carboxamide]		< 0.05	
O=C(NO)c1cnc(ON=C(c2ccccc2)c2ccccc2)nc1 [2-(diphenylmethyleneaminooxy)-N-hydroxypyrimidine-5-carboxamide]		1 to 10	
O=C(NO)c1cccc(CN2c3ccccc3Oc3ccccc32)c1 [3-((10H-phenoxazin-10-yl)methyl)-N-hydroxybenzamide]		1 to 10	
O=C(NO)c1ccc(C2Nc3ccccc3Oc3ccccc32)cc1 (stereo not shown) [4-(10,11-dihydrodibenzo[b,f][1,4]oxazepin-11-yl)-N-hydroxybenzamide]			IC50 (read-out: HDAC Inhibtion (IC50 μM) HDAC Enzyme): < 0.05 µM
N#Cc1cccc(N2C[C@@H]3C[C@H]2CN3c2ccc(C(=O)NO)cc2)c1 [4-((1S,4S)-5-(3-cyanophenyl)-2,5-diazabicyclo[2.2.1]heptan-2-yl)-N-hydroxybenzamide]	0.1 to 1		
O=C(NO)c1ccc(Cn2c3c(c4ccccc42)CCCCCC3)cc1 [4-((6,7,8,9,10,11-hexahydro-5H-cycloocta[b]indol-5-yl)methyl)-N-hydroxybenzamide]		0.1 to 1	
O=C(NO)c1ccc(CNC2c3ccccc3COc3ccccc32)cc1 (stereo not shown) [4-((6,11-dihydrodibenzo[b,e]oxepin-11-ylamino)methyl)-N-hydroxybenzamide]		0.1 to 1	
O=C(NO)c1ccc(CN2c3ccccc3CCc3ccccc32)cc1 [4-((10,11-dihydro-5H-dibenzo[b,f]azepin-5-yl)methyl)-N-hydroxybenzamide]		< 0.05	
O=C(NO)c1ccc(CN2C(=O)c3cccnc3N(C3CC3)c3ccccc32)cc1 [4-((11-cyclopropyl-5-oxo-5H-benzo[b]pyrido[2,3-e][1,4]diazepin-6(11H)-yl)methyl)-N-hydroxybenzamide]		0.1 to 1	
O=C(NO)c1ccc(CN2Cc3ccccc3Oc3ccccc32)cc1 [4-(dibenzo[b,f][1,4]oxazepin-10(11H)-ylmethyl)-N-hydroxybenzamide]		< 0.05	
O=C(CCCCCN1c2ccccc2CCc2ccccc21)NO [6-(10,11-dihydro-5H-dibenzo[b,f]azepin-5-yl)-N-hydroxyhexanamide]		< 0.05	
O=C(CCCCCN1C(=O)c2cccnc2N(C2CC2)c2ccccc21)NO [6-(11-cyclopropyl-5-oxo-5H-benzo[b]pyrido[2,3-e][1,4]diazepin-6(11H)-yl)-N-hydroxyhexanamide]		0.1 to 1	
O=C(CCCCCCN1C(=O)c2cccnc2N(C2CC2)c2ccccc21)NO [7-(11-cyclopropyl-5-oxo-5H-benzo[b]pyrido[2,3-e][1,4]diazepin-6(11H)-yl)-N-hydroxyheptanamide]		0.05 to 0.1	
O=C(CCCCCCN1Cc2ccccc2Oc2ccccc21)NO [7-(dibenzo[b,f][1,4]oxazepin-10(11H)-yl)-N-hydroxyheptanamide]		0.1 to 1	
O=C(CCCCCCCN1C(=O)c2cccnc2N(C2CC2)c2ccccc21)NO [8-(11-cyclopropyl-5-oxo-5H-benzo[b]pyrido[2,3-e][1,4]diazepin-6(11H)-yl)-N-hydroxyoctanamide]		0.1 to 1	

Further lines, with some results ahead:

IC50 [1] [µM]	IC50 [2] [µM]	SMILES	also measured
< 0.05		O=C(NO)c1cnc(N2C[C@@H]3C[C@H]2CN3c2ccc(Cl)cc2)nc1 [2-((1S,4S)-5-(4-chlorophenyl)-2,5-diazabicyclo[2.2.1]heptan-2-yl)-N-hydroxypyrimidine-5-carboxamide]	
0.05 to 0.1		O=C(NO)c1cnc(N2C[C@@H]3C[C@H]2CN3c2ccc(F)cc2)nc1 [2-((1S,4S)-5-(4-fluorophenyl)-2,5-diazabicyclo[2.2.1]heptan-2-yl)-N-hydroxypyrimidine-5-carboxamide]	
< 0.05		O=C(NO)c1cnc(N2C[C@@H]3C[C@H]2CN3c2noc3ccccc23)nc1 [2-((1S,4S)-5-(benzo[d]isoxazol-3-yl)-2,5-diazabicyclo[2.2.1]heptan-2-yl)-N-hydroxypyrimidine-5-carboxamide]	
< 0.05		O=C(NO)c1cnc(N2C[C@@H]3C[C@H]2CN3C(=O)c2ccccc2)nc1 [2-((1S,4S)-5-benzoyl-2,5-diazabicyclo[2.2.1]heptan-2-yl)-N-hydroxypyrimidine-5-carboxamide]	
0.1 to 1		O=C(NO)c1ccc(N2C[C@@H]3C[C@H]2CN3c2cccc(C(F)(F)F)c2)cc1F [2-fluoro-N-hydroxy-4-((1S,4S)-5-(3-(trifluoromethyl)phenyl)-2,5-diazabicyclo[2.2.1]heptan-2-yl)benzamide]	
	0.1 to 1	O=C(NO)c1cccc(CN2c3ccccc3Sc3ccccc32)c1 [3-((10H-phenothiazin-10-yl)methyl)-N-hydroxybenzamide]	
	1 to 10	O=C(NO)c1cccc(CN(c2ccccc2)c2ccccc2)c1 [3-((diphenylamino)methyl)-N-hydroxybenzamide]	
	1 to 10	O=C(CCCN1C(=O)c2cccnc2N(C2CC2)c2ccccc21)NO [4-(11-cyclopropyl-5-oxo-5H-benzo[b]pyrido[2,3-e][1,4]diazepin-6(11H)-yl)-N-hydroxybutanamide]	
	< 0.05	O=C(NO)c1ccc(CNC(c2ccccc2)c2ccccc2)cc1 [4-((benzhydrylamino)methyl)-N-hydroxybenzamide]	
	0.1 to 1	O=C(NO)c1ccc(CN(c2ccccc2)c2ccccc2)cc1 [4-((diphenylamino)methyl)-N-hydroxybenzamide]	
	0.1 to 1	O=C(CCCCCCC(=O)N1Cc2ccccc2Oc2ccccc21)NO [8-(dibenzo[b,f][1,4]oxazepin-10(11H)-yl)-N-hydroxy-8-oxooctanamide]	
